The values below come from patent US20260217660A1, “INHIBITORS OF ACTIVIN RECEPTOR TYPE I (ACVRI) AND ACTIVIN RECEPTOR LIKE TYPE I (ACVRLI), AND METHODS USING SAME” (Baylor College of Medicine, priority 2023, published 2026).

Structures are written as SMILES. Positions count from the first letter of the chain named.

One data set has as its target T1, ACVR1^WT (Homo sapiens, UniProt Q04771).
T1 sequence (Q04771 21-509): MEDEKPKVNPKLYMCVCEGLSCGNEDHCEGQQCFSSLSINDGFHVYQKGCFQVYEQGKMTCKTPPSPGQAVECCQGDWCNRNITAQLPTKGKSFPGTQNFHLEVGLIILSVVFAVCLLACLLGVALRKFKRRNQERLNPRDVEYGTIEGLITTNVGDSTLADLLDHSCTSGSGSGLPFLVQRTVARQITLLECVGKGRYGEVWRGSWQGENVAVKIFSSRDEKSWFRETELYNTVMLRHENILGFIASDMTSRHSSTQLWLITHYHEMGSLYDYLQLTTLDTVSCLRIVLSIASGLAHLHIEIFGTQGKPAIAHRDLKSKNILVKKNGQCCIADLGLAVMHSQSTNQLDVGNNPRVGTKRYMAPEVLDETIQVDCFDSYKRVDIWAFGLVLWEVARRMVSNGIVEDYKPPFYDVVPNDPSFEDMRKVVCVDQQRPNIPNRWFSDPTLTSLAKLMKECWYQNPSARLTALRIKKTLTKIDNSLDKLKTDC
The data set can be described thus: Promega NanoBRET live-cell target engagement, ACVR1. It is filed as cell-based. The conditions noted are these: in cellulo; NI = No inhibition at 40 μM. From the text:
(§1) The Promega NanoBRET target engagement system involves cell-based competitive displacement of a fluorescent NanoBRET tracer bound reversibly to a NanoLuc fusion protein. Test compounds displace the tracer dependent on their affinity for the target and reduce […] the NanoBRET signal. […]

The target of another data set is T2, ACVR1^R206H (Homo sapiens, UniProt Q04771, R206H).
T2 sequence (Q04771 21-509 R206H): T1 sequence (Q04771 21-509) with R186H
The data set can be described thus: Promega NanoBRET live-cell target engagement, ACVR1 (R206H). To be noted: in cellulo; NI = No inhibition at 40 μM. It is filed as cell-based.
Description: as §1

Data set [1] can be described thus: Metabolic stability in mouse liver microsomes. The class given is in vitro ADME. To be noted: some cells add hours in brackets. An excerpt:
(§2) Exemplary compounds of the present disclosure have been evaluated for metabolic stability in mouse and human liver microsomes.

A short description of data set [2]: Metabolic stability in human liver microsomes. It is filed as in vitro ADME. To be noted: some cells add hours in brackets.
Description: as §2
(Liver microsomes are a subcellular fraction often used to study metabolism.)

Data set [3] has as its system BMP2-induced luciferase activity in 293T-BRE-reporter cells. The data set can be described thus: BMP2-induced luciferase reporter activity in 293T-BRE reporter cells. The class given is cell-based. To be noted: 0.2, 1, 5, 25 μM, 30 min pre-treatment, 5 ng/ml BMP2, 6 hours. On the procedure:
BMP2-dependent luciferase reporter activation was quantified after 6 hours using the Promega BrightGLO luciferase system on a Tecan Infinity M1000 Pro plate reader.
FIG. 10 provides a bar graph depicting inhibition of BMP2-induced luciferase activity in 293T-BRE-reporter cells. Approximately 20,000 cells per well were plated in a 96-well plate and allowed to attach overnight. […] Cells were then stimulated with vehicle or 5 ng/ml BMP2 for 6 hours. Luciferase transactivation was assessed using the Promega BrightGLO luciferase system (Promega) and the signal was quantified using a plate reader (M1000 Pro).
(In general: A reporter such as luciferase makes a cellular process visible.)

For data set [4], the system named is pSMAD1/5 in FOP fibroblasts (FOP GM00513). The data set can be described thus: BMP2-induced pSMAD1/5 Western blot in primary FOP fibroblasts. The class given is cell-based, human. To be noted: 1, 5, 25 μM, 30 min pre-treatment, 5 ng/mL BMP2 45 min. On the procedure: (§3) FIG. 11 depicts inhibition of phosphorylated SMAD1/5 (pSMAD1/5) in primary WT and FOP fibroblasts. […] Subsequently, the fibroblasts were treated with vehicle (i.e., DMSO) or 5 ng/mL BMP2 in the presence of the inhibitors for 45 minutes. Cell lysates were then probed with antibodies against pSMAD1/5, total SMAD5, total SMAD1, and GAPDH (i.e., loading control) using a Western blot.
In general terms: In western blotting, separated proteins are transferred to a membrane and probed.

Data set [5] relates to pSMAD1/5 in WT fibroblasts (WT GM01652). The data set can be described thus: BMP2-induced pSMAD1/5 Western blot in primary WT fibroblasts. The class given is cell-based, human. The conditions noted are these: 1, 5, 25 μM, 30 min pre-treatment, 5 ng/mL BMP2 45 min. On the procedure:
as §3

`CNC(=O)[C@H]1C[C@H](n2c(-c3cc(OC)c(OC)c(OC)c3)nc3ccc(C(=O)NCCCN4CCN(C)CC4)cc32)C1` [CDD-2280, 1-((1r,3r)-3-(methylcarbamoyl)cyclobutyl)-N-(3-(4-methylpiperazin-1-yl)propyl)-2-(3,4,5-trimethoxyphenyl)-1H-benzo[d]imidazole-6-carboxamide]: the IC50 on ACVR1^WT and against ACVR1^R206H was over 40 µM in each case. The “Metabolism MLM” value in data set [1] was 48 min. For the same molecule, the “Metabolism HLM” value in data set [2] stood at 70.7 min.

As to `CNC(=O)[C@H]1C[C@H](n2c(-c3cc(OC)c(OC)c(OC)c3)nc3ccc(C(=O)NCCCN(C)C)cc32)C1` [CDD-2281, N-(3-(dimethylamino)propyl)-1-((1r,3r)-3-(methylcarbamoyl)cyclobutyl)-2-(3,4,5-trimethoxyphenyl)-1H-benzo[d]imidazole-6-carboxamide], the IC50 against ACVR1^WT and against ACVR1^R206H was over 40 µM in each case. Further, the “Metabolism MLM (Min)” value in data set [1] was 807.1 (13.4 h) Min. The “Metabolism HLM (Min)” value in data set [2] is recorded as 769.1 (12.81 h) Min.

Take `CNC(=O)[C@H]1C[C@H](n2c(-c3cc(OC)c(OC)c(OC)c3)nc3ccc(C(=O)NCC4CCN(C)CC4)cc32)C1` [CDD-2282, 1-((1r,3r)-3-(methylcarbamoyl)cyclobutyl)-N-((1-methylpiperidin-4-yl)methyl)-2-(3,4,5-trimethoxyphenyl)-1H-benzo[d]imidazole-6-carboxamide]: the IC50 against ACVR1^WT and against ACVR1^R206H was over 40 µM each time. The “Metabolism MLM (Min)” value in data set [1] was 220.4 (3.67 h) Min. Also, the “Metabolism HLM (Min)” value in data set [2] was 978 (16.3 h) Min.

For `CNC(=O)[C@H]1C[C@H](n2c(-c3cccc(OC)c3)nc3ccc(C(=O)NCCCN4CCN(c5ccccc5)CC4)cc32)C1` [CDD-2313, 2-(3-methoxyphenyl)-1-((1r,3r)-3-(methylcarbamoyl)cyclobutyl)-N-(3-(4-phenylpiperazin-1-yl)propyl)-1H-benzo[d]imidazole-6-carboxamide], the results for the IC50 against ACVR1^WT and at ACVR1^R206H were 6.17 µM and 3.4 µM, respectively. Also, in data set [1], the “Metabolism MLM” value came out at 8.6 min. The “Metabolism HLM” value in data set [2] turned out to be 23 min.

As for `COc1cc(-c2nc3ccc(C(=O)NCCCN4CCN(c5ccccc5)CC4)cc3n2C2CCC2)cc(OC)c1OC` [CDD-2315, 1-cyclobutyl-N-(3-(4-phenylpiperazin-1-yl)propyl)-2-(3,4,5-trimethoxyphenyl)-1H-benzo[d]imidazole-6-carboxamide], the IC50 was 0.56 µM at ACVR1^WT and 2.6 µM on ACVR1^R206H. Moreover, in data set [1], the “Metabolism MLM” value is 6.3 min. Further, the “Metabolism HLM” value in data set [2] stood at 7.8 min. Also, in data set [3], the “inhibition of BMP2-induced luciferase activity” value (from here on “inhibition”) is “Potent inhibition”. The “suppression of BMP2-induced pSMAD1/5 activation, FOP fibroblasts” value (shortened to “suppression … FOP fibroblasts”) in data set [4] is listed as “suppressed”. Further, the “suppression of BMP2-induced pSMAD1/5 activation, WT fibroblasts” value (“suppression … WT fibroblasts” for short) in data set [5] is listed as “suppressed”.

With `CNC(=O)[C@H]1C[C@H](n2c(-c3cc(F)cc(OC)c3)nc3ccc(C(=O)NCCCN4CCN(c5ccccc5)CC4)cc32)C1` [CDD-2340, 2-(3-fluoro-5-methoxyphenyl)-1-((1r,3r)-3-(methylcarbamoyl)cyclobutyl)-N-(3-(4-phenylpiperazin-1-yl)propyl)-1H-benzo[d]imidazole-6-carboxamide], the IC50 stood at 5.3 µM at ACVR1^WT and 9.2 µM at ACVR1^R206H. Moreover, in data set [1], the “Metabolism MLM” value turned out to be 7.1 min. Besides, the “Metabolism HLM” value in data set [2] worked out at 24.4 min. Further, in data set [3], the “inhibition” value is reported as “Potent inhibition”. In addition, the “suppression … FOP fibroblasts” value in data set [4] is listed as “suppressed”. The “suppression … WT fibroblasts” value in data set [5] is “suppressed”.

In the case of `CNC(=O)[C@H]1C[C@H](n2c(-c3ccc(OC)c(OC)c3)nc3ccc(C(=O)NCCCN4CCN(c5cccc(C)c5C)CC4)cc32)C1` [CDD-2421, 2-(3,4-dimethoxyphenyl)-N-(3-(4-(2,3-dimethylphenyl)piperazin-1-yl)propyl)-1-((1r,3r)-3-(methylcarbamoyl)cyclobutyl)-1H-benzo[d]imidazole-6-carboxamide], the figures for the IC50 at ACVR1^WT and against ACVR1^R206H were 1.24 µM and 2.4 µM, respectively. For the same molecule, in data set [1], the “Metabolism MLM” value was found to be 3.7 min. The “Metabolism HLM” value in data set [2] amounted to 6 min.

`COc1cc(F)cc(-c2nc3ccc(C(=O)NCCCN(C)C)cc3n2C2CCC2)c1` [CDD-2617, 1-cyclobutyl-N-(3-(dimethylamino)propyl)-2-(3-fluoro-5-methoxyphenyl)-1H-benzo[d]imidazole-6-carboxamide]: the IC50 against ACVR1^WT amounted to 10.7 µM; on ACVR1^R206H, 13.4 µM. The “Metabolism MLM (Min)” value in data set [1] is reported as 78.5 (1.3 h) Min. In addition, the “Metabolism HLM (Min)” value in data set [2] is recorded as 194 (3.2 h) Min.

For the molecule `COc1cc(-c2nc3ccc(C(=O)NCCCN4CCN(c5ccccn5)CC4)cc3n2C2CCC2)cc(OC)c1OC` [CDD-2787, 1-cyclobutyl-N-(3-(4-(pyridin-2-yl)piperazin-1-yl)propyl)-2-(3,4,5-trimethoxyphenyl)-1H-benzo[d]imidazole-6-carboxamide], the IC50 was 0.473 µM on ACVR1^WT and 0.705 µM against ACVR1^R206H. Also, the “Metabolism MLM” value in data set [1] came out at 3.3 min. In addition, the “Metabolism HLM” value in data set [2] came to 9.8 min. In data set [3], the “inhibition” value was “Potent inhibition”. The “suppression … FOP fibroblasts” value in data set [4] was “suppressed”. In data set [5], the “suppression … WT fibroblasts” value is on record as “suppressed”.

As for `COc1cc(-c2nc3ccc(C(=O)NCCCN4CCN(c5ccccc5)C(=O)C4)cc3n2C2CCC2)cc(OC)c1OC` [CDD-2790, 1-cyclobutyl-N-(3-(3-oxo-4-phenylpiperazin-1-yl)propyl)-2-(3,4,5-trimethoxyphenyl)-1H-benzo[d]imidazole-6-carboxamide], the IC50 against ACVR1^WT worked out at 1.82 µM; on ACVR1^R206H it was 2.27 µM. Further, in data set [1], the “Metabolism MLM” value came out at 6.1 min. Moreover, the “Metabolism HLM” value in data set [2] stood at 9.0 min.

`COc1cc(-c2nc3ccc(C(=O)NCCCN4CCN(C5CCCCC5)CC4)cc3n2C2CCC2)cc(OC)c1OC` [CDD-2792, 1-cyclobutyl-N-(3-(4-cyclohexylpiperazin-1-yl)propyl)-2-(3,4,5-trimethoxyphenyl)-1H-benzo[d]imidazole-6-carboxamide]: the IC50 came to 0.358 µM at ACVR1^WT and 0.849 µM against ACVR1^R206H. Moreover, the “Metabolism MLM” value in data set [1] was 10 min. Besides, in data set [2], the “Metabolism HLM” value was 38.3 min.

As a reminder, the IC50 is the concentration that inhibits the measured activity by half.
